# Earlier results, collected in patent US20170216217A1, “SPHERICAL MICROCAPSULES WITH ENHANCED ORAL BIOAVAILABILITY” (I2O Pharma Ltd., priority 2016, published 2017).
compound,measurement,value
CN1CCN(C2=Nc3cc(Cl)ccc3Nc3ccccc32)CC1 [Clozapine],Oral bioavailability,27%
